Converted amounts (≈) assume the structure as drawn. Read-outs that look alike come from different tables or passages of the source.
Legend:
[1] = test system: S. aureus MRSA ATCC 33591; assay: Mouse septicemia protection assay; type: in vivo; conditions: CD-1 female mice, IV, QD single dose one hour post infection, survival after 48 hrs
Procedure: CD-1 female mice were infected with 0.5 mL of bacterial suspension (3.28×10^7 CFU/mouse) via intraperitoneal injection, a concentration that achieves at least 90% mortality within 48 hours after infection. At one hour post infection, mice were treated with the compound intravenously with single doses and the results are shown in Table 12.

[2] = test system: Staphylococcus aureus MSSA; assay: MIC against contemporary clinical isolates; conditions: for % S (CLSI % susceptible) / MIC Range: MSSA (n = 20); for MIC50 / MIC90: Staphylococcus aureus, MSSA
[3] = test system: Staphylococcus aureus MRSA; assay: MIC against contemporary clinical isolates; conditions: for % S (CLSI % susceptible) / MIC Range: MRSA (n = 20); for MIC50 / MIC90: Staphylococcus aureus, MRSA
[4] = test system: Staphylococcus aureus VISA; assay: MIC against contemporary clinical isolates; conditions: for MIC50 / MIC90: Staphylococcus aureus, VISA; for % S (CLSI % susceptible) / MIC Range: VISA (n = 10)
[5] = test system: Staphylococcus aureus Daptomycin^NS; assay: MIC against contemporary clinical isolates; conditions: Daptomycin^NS (n = 5)
[6] = test system: Staphylococcus aureus Linezolid^R; assay: MIC against contemporary clinical isolates; conditions: Linezolid^R (n = 5)
[7] = test system: Staphylococcus epidermidis; assay: MIC against contemporary clinical isolates; conditions: for MIC50 / MIC90: Staphylococcus epidermidis; for % S (CLSI % susceptible) / MIC Range: n = 20
[8] = test system: Enterococcus faecalis; assay: MIC against contemporary clinical isolates; conditions: for % S (CLSI % susceptible) / MIC Range: n = 10, 50% VRE
[9] = test system: Enterococcus faecium; assay: MIC against contemporary clinical isolates; conditions: for % S (CLSI % susceptible) / MIC Range: n = 10, 50% VRE
[10] = test system: Streptococcus pneumoniae; assay: MIC against contemporary clinical isolates; conditions: for MIC50 / MIC90: Streptococcus pneumoniae, PRSP; for % S (CLSI % susceptible) / MIC Range: n = 20, 28.6% PSSP, 33.3% PISP, 38.1% PRSP
[11] = test system: Streptococcus pyogenes; assay: MIC against contemporary clinical isolates; conditions: for MIC50 / MIC90: Streptococcus pyogenes; for % S (CLSI % susceptible) / MIC Range: n = 10
[12] = test system: Streptococcus agalactiae; assay: MIC against contemporary clinical isolates; conditions: for MIC50 / MIC90: Streptococcus agalactiae; for % S (CLSI % susceptible) / MIC Range: n = 10
[13] = test system: Viridans Group Streptococci; assay: MIC against contemporary clinical isolates; conditions: n = 5
[14] = target: CYP2D6 (Homo sapiens (Human), UniProt P10635); assay: in vitro; conditions: liver microsomes, pH 7.4
[15] = test system: Streptococcus pneumoniae ATCC 6301 (UNT012-2); assay: Immunocompetent mouse pneumonia model; type: in vivo
Procedure: The compound of Formula (II) was then evaluated against Streptococcus pneumoniae in an immunocompetent mouse pneumonia model to determine the compound's potential to treat acute respiratory infections. Briefly, CD-1 mice were infected intranasally with Streptococcus pneumoniae ATCC 6301 (UNT012-2) (1.5×10^6 CFU/mouse). The compound was delivered intravenously at 24 and 36 hours post-infection, and at doses ranging from 0.5 to 10 mg/kg/dose. At 48 hours post infection, treated mice were euthanized, lungs aseptically removed and processed for CFU titers

[16] = test system: Bacillus anthracis; type: cell-based

Chain of CYP2D6 (P10635 whole entry, looked up): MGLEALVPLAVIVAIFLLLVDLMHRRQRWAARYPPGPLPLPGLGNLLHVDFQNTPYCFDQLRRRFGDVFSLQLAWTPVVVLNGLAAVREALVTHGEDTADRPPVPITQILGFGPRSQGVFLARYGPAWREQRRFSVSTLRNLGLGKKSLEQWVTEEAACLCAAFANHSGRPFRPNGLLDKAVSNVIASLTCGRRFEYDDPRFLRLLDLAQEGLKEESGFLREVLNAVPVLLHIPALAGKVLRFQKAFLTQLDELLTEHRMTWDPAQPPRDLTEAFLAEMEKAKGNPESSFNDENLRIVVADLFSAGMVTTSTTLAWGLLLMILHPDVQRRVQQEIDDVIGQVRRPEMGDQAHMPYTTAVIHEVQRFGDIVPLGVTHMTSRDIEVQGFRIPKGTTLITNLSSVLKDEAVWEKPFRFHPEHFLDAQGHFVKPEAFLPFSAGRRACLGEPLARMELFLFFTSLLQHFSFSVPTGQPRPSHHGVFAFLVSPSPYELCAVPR

CN[C@H](CC(C)C)C(=O)N[C@H]1C(=O)N[C@@H](CC(N)=O)C(=O)N[C@H]2C(=O)N[C@H]3C(=O)N[C@H](C(=O)N[C@H](C(=O)O)c4cc(O)cc(O)c4-c4cc3ccc4O)[C@H](O)c3ccc(c(Cl)c3)Oc3cc2cc(c3O[C@@H]2O[C@H](CO)[C@@H](O)[C@H](O)[C@H]2O[C@H]2C[C@](C)(N)[C@H](O)[C@H](C)O2)Oc2ccc(cc2Cl)[C@H]1O [Vancomycin]
PD50 [1]: ~2.75 mg/kg
PD50 ([1]; listed as vancomycin): ~2.75 mg/kg
% S (CLSI % susceptible) [2]: 100.0%
MIC Range [2]: 0.5-1^ μg/mL
MIC50 [2]: 0.5 µg/mL (≈ 0.345 µM)
MIC90 [2]: 1 µg/mL (≈ 0.69 µM)
% S (CLSI % susceptible) [3]: 100.0%
MIC Range [3]: 0.5-2^ μg/mL
MIC50 [3]: 0.5 µg/mL (≈ 0.345 µM)
MIC90 [3]: 1 µg/mL (≈ 0.69 µM)
MIC50 [4]: 4 µg/mL (≈ 2.76 µM)
MIC90 [4]: 8 µg/mL (≈ 5.52 µM)
% S (CLSI % susceptible) [4]: 10.0%
MIC Range [4]: 1 to 8 µg/mL
% S (CLSI % susceptible) [5]: 40.0%
MIC Range [5]: 0.5-8^ μg/mL
% S (CLSI % susceptible) [6]: 100.0%
MIC Range [6]: 1 µg/mL (≈ 0.69 µM)
MIC50 [7]: 2 µg/mL (≈ 1.38 µM)
MIC90 [7]: 2 µg/mL (≈ 1.38 µM)
% S (CLSI % susceptible) [7]: 100.0%
MIC Range [7]: 1 to 2 µg/mL
MIC50 [8]: 1 µg/mL (≈ 0.69 µM)
MIC90 [8]: > 32 µg/mL
% S (CLSI % susceptible) [8]: 50.0%
MIC50 [9]: 0.5 µg/mL (≈ 0.345 µM)
MIC90 [9]: > 32 µg/mL
% S (CLSI % susceptible) [9]: 50.0%
MIC50 [10]: 0.25 µg/mL (≈ 0.173 µM)
MIC90 [10]: 0.25 µg/mL (≈ 0.173 µM)
% S (CLSI % susceptible) [10]: 100.0%
MIC Range [10]: 0.12 to 0.5 µg/mL
MIC50 [11]: 0.25 µg/mL (≈ 0.173 µM)
MIC90 [11]: 0.25 µg/mL (≈ 0.173 µM)
% S (CLSI % susceptible) [11]: 100.0%
MIC Range [11]: 0.25 µg/mL (≈ 0.173 µM)
MIC50 [12]: 0.5 µg/mL (≈ 0.345 µM)
MIC90 [12]: 0.5 µg/mL (≈ 0.345 µM)
% S (CLSI % susceptible) [12]: 100.0%
MIC Range [12]: 0.25 to 0.5 µg/mL
% S (CLSI % susceptible) [13]: 100.0%
MIC Range [13]: 0.25 to 0.5 µg/mL

C=C[C@H]1C[N@@]2CC[C@H]1C[C@@H]2[C@@H](O)c1ccnc2ccc(OC)cc12 [Quinidine]
inhibition at 10 min, 0.1 µM [14]: 60.6%
inhibition at 10 min, 1 µM [14]: 91.7%

CC1(C)S[C@@H]2[C@H](NC(=O)[C@H](N)c3ccc(O)cc3)C(=O)N2[C@H]1C(=O)O [Amoxicillin]
Log10 change from 24 hrs ([15]; 10 mg/kg/dose): −3.98 Log10
Log10 change from 48 hrs ([15]; 10 mg/kg/dose): −5.83 Log10
Mean Log10 CFU ([15]; 10 mg/kg/dose IV at 24 and 36 hours post-infection, lungs at 48 hours): 2.78 Log10 CFU

C[C@H]1c2cccc(O)c2C(=O)C2=C(O)[C@]3(O)C(=O)C(C(N)=O)=C(O)[C@@H](N(C)C)[C@@H]3[C@@H](O)[C@@H]21 [Doxycycline]
MIC ([16]; B. anthracis NR-36): 0.06 µg/mL (≈ 0.135 µM)
MIC ([16]; B. anthracis NR-38): 0.125 µg/mL (≈ 0.281 µM)
MIC ([16]; B. anthracis NR-41): 0.06 µg/mL (≈ 0.135 µM)
MIC ([16]; B. anthracis NR-46): 0.125 µg/mL (≈ 0.281 µM)
MIC ([16]; B. anthracis NR-411): 0.125 µg/mL (≈ 0.281 µM)
MIC ([16]; B. anthracis NR-412): 0.03 µg/mL (≈ 0.0675 µM)
MIC ([16]; B. anthracis NR-413): 0.06 µg/mL (≈ 0.135 µM)
MIC ([16]; B. anthracis NR-414): 0.125 µg/mL (≈ 0.281 µM)
MIC ([16]; B. anthracis NR-415): 0.06 µg/mL (≈ 0.135 µM)
MIC ([16]; B. anthracis NR-3838): 0.06 µg/mL (≈ 0.135 µM)

CC(=O)NC[C@H]1CN(c2ccc(N3CCOCC3)c(F)c2)C(=O)O1 [Linezolid]
% S (CLSI % susceptible) [2]: 100.0%
MIC Range [2]: 2 to 4 µg/mL
MIC50 [2]: 2 µg/mL (≈ 5.93 µM)
MIC90 [2]: 4 µg/mL (≈ 11.9 µM)
% S (CLSI % susceptible) [3]: 100.0%
MIC Range [3]: 2 to 4 µg/mL
MIC50 [3]: 2 µg/mL (≈ 5.93 µM)
MIC90 [3]: 4 µg/mL (≈ 11.9 µM)
MIC50 [4]: 2 µg/mL (≈ 5.93 µM)
MIC90 [4]: 2 µg/mL (≈ 5.93 µM)
% S (CLSI % susceptible) [4]: 100.0%
MIC Range [4]: 1 to 4 µg/mL
% S (CLSI % susceptible) [5]: 80.0%
MIC Range [5]: 1 to 32 µg/mL
% S (CLSI % susceptible) [6]: 0.0%
MIC50 [7]: 2 µg/mL (≈ 5.93 µM)
MIC90 [7]: 2 µg/mL (≈ 5.93 µM)
% S (CLSI % susceptible) [7]: 100.0%
MIC Range [7]: 1 to 4 µg/mL
MIC50 [8]: 2 µg/mL (≈ 5.93 µM)
MIC90 [8]: 2 µg/mL (≈ 5.93 µM)
% S (CLSI % susceptible) [8]: 100.0%
MIC Range [8]: 1 to 2 µg/mL
MIC50 [9]: 2 µg/mL (≈ 5.93 µM)
MIC90 [9]: 2 µg/mL (≈ 5.93 µM)
% S (CLSI % susceptible) [9]: 100.0%
MIC Range [9]: 1 to 2 µg/mL
MIC50 [10]: 1 µg/mL (≈ 2.96 µM)
MIC90 [10]: 1 µg/mL (≈ 2.96 µM)
% S (CLSI % susceptible) [10]: 100.0%
MIC Range [10]: 0.25 to 1 µg/mL
MIC50 [11]: 1 µg/mL (≈ 2.96 µM)
MIC90 [11]: 1 µg/mL (≈ 2.96 µM)
% S (CLSI % susceptible) [11]: 100.0%
MIC Range [11]: 0.5-1^ μg/mL
MIC50 [12]: 1 µg/mL (≈ 2.96 µM)
MIC90 [12]: 1 µg/mL (≈ 2.96 µM)
% S (CLSI % susceptible) [12]: 100.0%
MIC Range [12]: 0.5-2^ μg/mL
% S (CLSI % susceptible) [13]: 100.0%
MIC Range [13]: 0.5-1^ μg/mL

CCCCCCCCCC(=O)N[C@@H](Cc1c[nH]c2ccccc12)C(=O)N[C@H](CC(N)=O)C(=O)N[C@@H](CC(=O)O)C(=O)N[C@@H]1C(=O)NCC(=O)N[C@@H](CCCN)C(=O)N[C@@H](CC(=O)O)C(=O)N[C@H](C)C(=O)N[C@@H](CC(=O)O)C(=O)NCC(=O)N[C@H](CO)C(=O)N[C@@H]([C@H](C)CC(=O)O)C(=O)N[C@@H](CC(=O)c2ccccc2N)C(=O)O[C@@H]1C [Daptomycin]
% S (CLSI % susceptible) [2]: 100.0%
MIC Range [2]: 0.12 to 0.25 µg/mL
MIC50 [2]: 0.25 µg/mL (≈ 0.154 µM)
MIC90 [2]: 0.25 µg/mL (≈ 0.154 µM)
% S (CLSI % susceptible) [3]: 100.0%
MIC Range [3]: 0.12 to 0.25 µg/mL
MIC50 [3]: 0.25 µg/mL (≈ 0.154 µM)
MIC90 [3]: 0.25 µg/mL (≈ 0.154 µM)
MIC50 [4]: 0.5 µg/mL (≈ 0.309 µM)
MIC90 [4]: 1 µg/mL (≈ 0.617 µM)
% S (CLSI % susceptible) [4]: 100.0%
MIC Range [4]: 0.25 to 1 µg/mL
% S (CLSI % susceptible) [5]: 0.0%
MIC Range [5]: 2 to 8 µg/mL
% S (CLSI % susceptible) [6]: 100.0%
MIC Range [6]: 0.25 to 0.5 µg/mL
MIC50 [7]: 0.12 µg/mL (≈ 0.074 µM)
MIC90 [7]: 0.25 µg/mL (≈ 0.154 µM)
% S (CLSI % susceptible) [7]: 100.0%
MIC Range [7]: 0.06 to 0.25 µg/mL
MIC50 [8]: 0.25 µg/mL (≈ 0.154 µM)
MIC90 [8]: 0.5 µg/mL (≈ 0.309 µM)
% S (CLSI % susceptible) [8]: 90.0%
MIC Range [8]: 0.12 to 8 µg/mL
MIC50 [9]: 0.5 µg/mL (≈ 0.309 µM)
MIC90 [9]: 1 µg/mL (≈ 0.617 µM)
% S (CLSI % susceptible) [9]: 100.0%
MIC Range [9]: 0.5-1^ μg/mL
MIC50 [10]: ≤ 0.03 µg/mL
MIC90 [10]: ≤ 0.03 µg/mL
MIC Range [10]: ≦0.03-0.06^ μg/mL
MIC50 [11]: ≤ 0.03 µg/mL
MIC90 [11]: 0.06 µg/mL (≈ 0.037 µM)
% S (CLSI % susceptible) [11]: 100.0%
MIC Range [11]: ≦0.03-0.06^ μg/mL
MIC50 [12]: 0.12 µg/mL (≈ 0.074 µM)
MIC90 [12]: 0.12 µg/mL (≈ 0.074 µM)
% S (CLSI % susceptible) [12]: 100.0%
MIC Range [12]: 0.06 to 0.25 µg/mL
% S (CLSI % susceptible) [13]: 100.0%
MIC Range [13]: 0.06 to 0.25 µg/mL
